Test results from ChEMBL document CHEMBL5360558, “Molecular design, synthesis and anticancer activity of new thiopyrano[2,3-d]thiazoles based on 5-hydroxy-1,4-naphthoquinone (juglone)” (Eur J Med Chem, 2023).

What was measured:
KB 3-1 = assay: Cytotoxicity against human KB 3-1 cells assessed as cell growth inhibition incubated for 72 hrs by MTT assay; assay type: functional, cell-based; conditions: KB 3-1, 72 h
[1] = Cytotoxicity against human HCT116-p53-null cells assessed as cell growth inhibition incubated for 72 hrs by MTT assay; assay type: functional, cell-based
[2] = (§1) Cytotoxicity against human HaCaT cells assessed as cell growth inhibition incubated for 72 hrs by MTT assay; assay type: toxicity, cell-based; conditions: HaCaT cells
K562 = assay: Cytotoxicity against human K562 cells assessed as cell growth inhibition incubated for 72 hrs by MTT assay; assay type: functional, cell-based; conditions: K562, 72 h
Salmon testes DNA = assay: Displacement of methyl green from salmon sperm DNA assessed as DNA intercalation at 10 uM incubated for 24 hrs by fluorescence plate reader method relative to control; assay type: nucleic-acid assay; conditions: Salmo salar
MCF7 = assay: Cytotoxicity against human MCF7 cells assessed as cell growth inhibition incubated for 72 hrs by MTT assay; assay type: functional, cell-based; conditions: MCF7, 72 h
HCT-116 = assay: Cytotoxicity against human HCT-116 cells assessed as cell growth inhibition incubated for 72 hrs by MTT assay; assay type: functional, cell-based; conditions: HCT-116, 72 h
[3] = Cytotoxicity against mouse J774.2 cells assessed as cell growth inhibition incubated for 72 hrs by MTT assay; assay type: toxicity, cell-based
[4] = Cytotoxicity against mouse NIH3T3 cells assessed as cell growth inhibition incubated for 72 hrs by MTT assay; assay type: toxicity, cell-based
HaCaT = assay: as §1; assay type: toxicity, cell-based; conditions: hacat, 72 h
[5] = GSH reactivity of compound at pH 7.4 phosphate buffer assessed as GSH-adduct formation at 1 mM incubated for 1 hr by spectrophotometric analysis; assay type: physicochemical; conditions: pH 7.4, 1 h, 1000 µM
[6] = GSH reactivity of compound at pH 7.4 phosphate buffer assessed as GSH-adduct formation at 1 mM incubated for 1 hr in presence of sodium borohydride by spectrophotometric analysis; assay type: physicochemical; conditions: pH 7.4, 1 h, 1000 µM

In the case of `O=C1C2=C(C(=O)c3c(O)cccc31)C(c1ccc(Br)cc1)c1sc(=O)[nH]c1S2` (stereo not given), the IC50 (KB 3-1) is reported as 2.74 µM, the IC50 [1] is reported as 3.82 µM and the IC50 at 72 h [2] is reported as over 50 µM. For the same compound, the IC50 (K562) was 6.31 µM, the Activity (Salmon testes DNA) was 29.5% and the IC50 (MCF7) was 31.2 µM. For the same compound, the IC50 (HCT-116) was 4.7 µM, the IC50 at 72 h [3] was 2.03 µM and the IC50 at 72 h [4] was 30.4 µM.
In the case of `O=C1C2=C(C(=O)c3ccccc31)C(c1ccco1)c1sc(=O)[nH]c1S2` (stereo not given), the IC50 (KB 3-1) is reported as 5.54 µM, the IC50 [1] is reported as 6.28 µM and the Activity (HaCaT) is reported as “Non-Toxic”. The IC50 (K562) was 30.9 µM, the Activity (Salmon testes DNA) was 11.8% and the IC50 (MCF7) was 29 µM. For the same compound, the IC50 (HCT-116) was 5.44 µM, the IC50 at 72 h [3] was 6.77 µM and the IC50 at 72 h [4] was 38.9 µM.
For `O=C1C=CC(=O)c2c(O)cccc21` [JUGLONE], the IC50 (KB 3-1) was 26.4 µM, the IC50 (HCT-116) was 31.6 µM and the Activity [5] was “Active”. The Activity [6] was “Active” and the IC50 at 72 h [3] was 13.4 µM.
With `O=C1NC(=S)/C(=C/c2ccco2)S1` the Activity [5] was “Active” and the Activity [6] was “Active”.
For `COc1ccc(C2C3=C(Sc4[nH]c(=O)sc42)C(=O)c2cccc(O)c2C3=O)cc1` (stereo not given), the IC50 (KB 3-1) was 0.87 µM, the IC50 [1] was 3.26 µM and the IC50 at 72 h [2] was 40.8 µM. For the same compound, the IC50 (K562) was 5.66 µM, the Activity (Salmon testes DNA) was 29.5% and the IC50 (MCF7) was 6.1 µM. It also gave an IC50 (HCT-116) of 3.19 µM, an IC50 at 72 h [3] of 2.95 µM and an IC50 at 72 h [4] of 6.78 µM.
`O=C1C2=C(C(=O)c3c(O)cccc31)C(CCc1ccccc1)c1sc(=O)[nH]c1S2` (stereo not given) showed an IC50 (KB 3-1) of over 50 µM, an IC50 [1] of over 50 µM and an IC50 (K562) of over 50 µM. It also gave an Activity (Salmon testes DNA) of 11.8%, an IC50 (MCF7) of over 50 µM and an IC50 (HCT-116) of over 50 µM. The IC50 at 72 h [3] was over 50 µM.
`O=C1C2=C(C(=O)c3c(O)cccc31)C(c1cc(Cl)ccc1O)c1sc(=O)[nH]c1S2` (stereo not given) showed an IC50 (KB 3-1) of 3.64 µM, an IC50 [1] of 3.86 µM and an IC50 at 72 h [2] of over 50 µM. It also gave an IC50 (K562) of 11.8 µM, an Activity (Salmon testes DNA) of 29.5% and an IC50 (MCF7) of 9.34 µM. For the same compound, the IC50 (HCT-116) was 0.75 µM, the IC50 at 72 h [3] was 5.25 µM and the IC50 at 72 h [4] was 37 µM.
